Values quoted from earlier work in patent US7445902B2, “Fluorescent nucleotide analogues” (GE Healthcare UK Limited, priority 2004, dated 2008).

Test system: receptor-Gαs/Gαi fusion proteins
Conditions: binding to receptor-Gαs/Gαi fusion proteins in the expression systems employed

Substance	fold lower affinity than GppNHp (relative to GppNHp)	fold lower affinity than GTPγS (relative to GTPγS)
BODIPY-FL-guanosine 5′-[β,γ-imido]triphosphate [B-GppNHp]	17-55 fold	
BODIPY-FL-guanosine 5′-[γ-thio]triphosphate [B-GTPγS]		1,100-5,600 fold
